Patent US20130023645A1 (priority 2006, published 2013)
“And” between values parts separate entries of the source, which are not always exact repeats. Equal values may be shown once. Positions of bridges follow the written chain, without caps; N, C: chain ends. Non-standard residues stand in square brackets, D forms with d. Residues, ends and D or L forms follow the SMILES beside them. ξ: configuration not given here. Ala(indol-2-yl) = N[C@@H](Cc1cc2ccccc2[nH]1)C(=O)O; AllylGly = C=CC[C@H](N)C(=O)O; ξP = O=C(O)C1CCCN1

Target: T1, neuronal-type nicotinic receptors (Bos taurus, UniProt Q07263+Q8SPU6)
T1 construct: monolayer cultures of bovine adrenal chromaffin cells; endogenous in cells; host or cells: bovine adrenal chromaffin cells (primary monolayer cultures)
Assay type: cell-based, bovine

T1 sequence (Q07263 22-495): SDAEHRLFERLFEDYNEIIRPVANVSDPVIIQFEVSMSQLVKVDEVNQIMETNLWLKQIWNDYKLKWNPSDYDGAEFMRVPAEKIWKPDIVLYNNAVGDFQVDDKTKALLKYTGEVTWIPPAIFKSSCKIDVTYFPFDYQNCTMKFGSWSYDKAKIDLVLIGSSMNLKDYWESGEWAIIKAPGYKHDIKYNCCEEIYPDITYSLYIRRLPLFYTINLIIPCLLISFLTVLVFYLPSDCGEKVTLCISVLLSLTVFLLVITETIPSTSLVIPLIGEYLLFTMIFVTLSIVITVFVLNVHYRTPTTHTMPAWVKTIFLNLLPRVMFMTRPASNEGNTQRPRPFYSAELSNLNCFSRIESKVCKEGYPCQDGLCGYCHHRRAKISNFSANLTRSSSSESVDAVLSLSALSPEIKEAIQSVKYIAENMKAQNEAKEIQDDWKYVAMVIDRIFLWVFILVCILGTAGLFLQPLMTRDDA
T1 sequence (Q8SPU6 20-496): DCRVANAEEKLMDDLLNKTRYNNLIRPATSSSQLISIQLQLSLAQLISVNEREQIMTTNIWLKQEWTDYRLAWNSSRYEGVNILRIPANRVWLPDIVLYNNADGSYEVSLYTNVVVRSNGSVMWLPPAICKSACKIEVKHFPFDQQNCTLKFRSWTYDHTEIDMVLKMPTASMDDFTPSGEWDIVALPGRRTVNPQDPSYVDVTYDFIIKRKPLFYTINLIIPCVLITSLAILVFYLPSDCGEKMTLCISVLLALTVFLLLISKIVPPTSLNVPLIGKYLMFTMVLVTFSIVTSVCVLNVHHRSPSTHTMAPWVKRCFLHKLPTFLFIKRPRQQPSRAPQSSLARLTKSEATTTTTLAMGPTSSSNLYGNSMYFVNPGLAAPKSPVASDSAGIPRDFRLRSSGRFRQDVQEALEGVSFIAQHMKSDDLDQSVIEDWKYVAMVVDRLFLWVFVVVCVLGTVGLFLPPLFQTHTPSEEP

C[C@@H]1NC(=O)[C@@H]2CSSC[C@H](NC(=O)CN)C(=O)N[C@@H](CC=CC[C@@H](C(N)=O)NC(=O)[C@H](CCCNC(=N)N)NC(=O)[C@H](Cc3cc4ccccc4[nH]3)NC1=O)C(=O)N[C@@H](CO)C(=O)N[C@@H](CC(=O)O)C(=O)N1CCCC1C(=O)N[C@@H](CCCNC(=N)N)C(=O)N2 (stereo partly drawn) [compound 119, [2,8]-Cystino-[3,12]-Dicarba Conotoxin ImI: NH2-Gly-Cys-c[Hag-Ser-Asp-Pro-Arg-Cys-Ala-Trp-Arg-Hag]-NH2] (H-GC[AllylGly]SD[ξP]RCA[Ala(indol-2-yl)]R[AllylGly]-NH2; disulfide 2-8; staple 3-12)
Adrenaline Release, % control: 83.420% and 58.888% | Adrenaline Release, mean: 3.77% and 2.76% | Adrenaline Release, single determinations (1st-4th): 3.31% and 3.67% and 4.14% and 3.98% and 2.32% and 2.95% and 2.76% and 3.02% | Noradrenaline Release, % control: 55.971% and 78.400% | Noradrenaline Release, % inhibition: 21.600% | Noradrenaline Release, mean: 4.15% and 5.52% | Noradrenaline Release, single determinations (1st-4th): 3.22% and 4.58% and 3.99% and 4.81% and 4.89% and 5.75% and 5.73% | noradrenaline released, basal release (0.72%) subtracted: 3.43%
